Source: publication PMC8222254, “Self-assembly of an anion receptor with metal-dependent kinase inhibition and potent in vitro anti-cancer properties” (Nature Communications, 2021)
“And” between values parts separate entries of the source, which are not always exact repeats. Equal entries are not always repeated. Where two headings read alike, the source gives them in different places.

What was measured:
Type in all cases: cell-based, human
[1] = tested on: HCT116 p53-/-; test: Chemosensitivity, 96 h continuous exposure, MTT assay; settings: for SI (ARPE19): mean IC50 ARPE-19 / mean IC50 HCT116 p53-/-; for SI (MCF10A): mean IC50 MCF10A / mean IC50 HCT116 p53-/-;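 on SI (NPI): adult human brain neural progenitor non-cancer cells from an epilepsy surgery patient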;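 on Selectivity Index using the NPI non-cancer cell line: adult human brain neural progenitor non-cancer cells from an epilepsy surgery patient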
How it was run: (§1)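 Cells were seeded overnight at 37 °C (2 × 10^3/well; GBM1 at 3 × 10^3/well on poly-L-ornithine/laminin in Neurobasal with hFGF/rhEGF), then exposed to compound concentration ranges for 96 h. Viability was read by MTT (4 h, formazan in DMSO, A540) and IC50 taken from dose–response curves.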

[2] = tested on: HCT116 p53+/+; test: as above
How it was run: as §1

[3] = tested on: DLD-1; test: as above
How it was run: as §1

[4] = tested on: A549; test: as above
How it was run: as §1

[5] = tested on: ARPE-19; test: Quantification of cellular ATP levels (CellTiterGlo); settings: for % ATP Activity (Average): ARPE-19 cells, average of runs, relative to 0 µM = 100
Description: (§2) ARPE-19 and HCT116 p53^+/+ cells were seeded in 96-well opaque plates at a density of 7500 cells/well. 24 h after seeding, cells were treated for 20 h with a range of concentrations of [[…]]^6+, [L2Zn3]^6+, [[…]]^6+, or vehicle control (2-fold serial dilution from 100-3.125 μM) before determining total cellular ATP content by quantification of luminescence (CellTiterGlo® assay, Promega). ATP levels were normalised relative to levels in vehicle control-treated cells.

[6] = tested on: HCT116 p53+/+; test: as above; settings: for % ATP Activity (Average): HCT116 p53+/+ cells, average of runs, relative to 0 µM = 100
Description: as §2
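Wherever SI (NPI) is given: adult human brain neural progenitor non-cancer cells from an epilepsy surgery patient.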
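Wherever Selectivity Index using the NPI non-cancer cell line is given: adult human brain neural progenitor non-cancer cells from an epilepsy surgery patient.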

Compound: CC(=O)[O-].CC(=O)[O-].CC(=O)[O-].CC(=O)[O-].CC(=O)[O-].CC(=O)[O-].[Zn+2].[Zn+2].[Zn+2].c1ccc(-c2csc(NCCN(CCNc3nc(-c4ccccn4)cs3)CCNc3nc(-c4ccccn4)cs3)n2)nc1.c1ccc(-c2csc(NCCN(CCNc3nc(-c4ccccn4)cs3)CCNc3nc(-c4ccccn4)cs3)n2)nc1 [[L2Zn3]6+]
- IC50 ([1]; HCT116 p53-/-, 96 h, MTT, individual run, read-out: IC50 values for each replicate): 61 nM and 91 nM and 64 nM
- IC50 ([1]; HCT116 p53-/-, 96 h, MTT, mean of at least 3 independent experiments, read-out: Mean IC50): 72 nM
- IC50 ([1]; HCT116 p53-/-, 96 h, MTT, read-out: IC50): 70 ± 13 nM
- IC50 ([1]; HCT116 p53-/-, mean of replicates, read-out: Mean IC50): 75 nM
- IC50 ([1]; HCT116 p53-/-, read-out: Mean IC50 values): 72 nM
- IC50 ([1]; HCT116 p53-/-, single replicate, read-out: IC50 values for each replicate): 79 nM and 86 nM
- Selectivity index (ARPE19) ([1]; IC50 ARPE-19 / IC50 HCT116 p53-/-): 2184.03 and 2183.99
- Selectivity index (MCF10A) ([1]; IC50 MCF10A / IC50 HCT116 p53-/-): 2245.00
- Selectivity Index using the NPI non-cancer cell line ([1]; IC50 NP1 / IC50 HCT116 p53-/-): 108.06
- more active towards HCT116 p53-/- than HCT116 p53+/+ ([1]; based on 96h IC50 values): ~ 6 fold
- SI (ARPE19) [1]: 2184.03
- SI (ARPE19) ([1]; listed as [L2Zn3]^6+): over 2000
- SI (MCF10A) [1]: 2245.00
- SI (MCF10A) ([1]; listed as [L2Zn3]^6+): over 2000
- SI (NPI) ([1]; mean IC50 NP1 / mean IC50 HCT116 p53-/-): 108.06
- Relative potency (+ anion to no anion), Ratio + anion:no anion ([1]; ratio of IC50, HCT116 p53-/-): 1
- Selectivity indices relative to ARPE-19, Ratio + anion:no anion ([1]; ratio of SI (ARPE-19), HCT116 p53-/-): 1
- Selectivity indices relative to MCF10A, Ratio + anion:no anion ([1]; ratio of SI (MCF 10A), HCT116 p53-/-): 1
- IC50 ([2]; HCT116 p53+/+, 96 h, MTT, mean of at least 3 independent experiments, read-out: Mean IC50): 466 nM
- IC50 ([2]; HCT116 p53+/+, mean of replicates, read-out: Mean IC50): 466 nM
- IC50 ([2]; HCT116 p53+/+, read-out: Mean IC50 values): 466 nM
- Selectivity index (ARPE19) ([2]; IC50 ARPE-19 / IC50 HCT116 p53+/+): 337.45 and 337.23
- Selectivity index (MCF10A) ([2]; IC50 MCF10A / IC50 HCT116 p53+/+): 346.87
- Selectivity Index using the NPI non-cancer cell line ([2]; IC50 NP1 / IC50 HCT116 p53+/+): 16.70
- SI (ARPE19) ([2]; mean IC50 ARPE-19 / mean IC50 HCT116 p53+/+): 337.45
- SI (MCF10A) ([2]; mean IC50 MCF10A / mean IC50 HCT116 p53+/+): 346.87
- SI (NPI) ([2]; mean IC50 NP1 / mean IC50 HCT116 p53+/+): 16.70
- Relative potency (+ anion to no anion), Ratio + anion:no anion ([2]; ratio of IC50, HCT116 p53+/+): 1
- Selectivity indices relative to ARPE-19, Ratio + anion:no anion ([2]; ratio of SI (ARPE-19), HCT116 p53+/+): 1
- Selectivity indices relative to MCF10A, Ratio + anion:no anion ([2]; ratio of SI (MCF 10A), HCT116 p53+/+): 1
- IC50 ([3]; DLD-1, 96 h, MTT, individual run, read-out: IC50 values for each replicate): 216 nM and 89 nM and 84 nM and 141 nM and 222 nM and 211 nM and 225 nM
- IC50 ([3]; DLD-1, 96 h, MTT, mean of at least 3 independent experiments, read-out: Mean IC50): 170 nM
- IC50 ([3]; DLD-1, mean of replicates, read-out: Mean IC50): 170 nM
- IC50 ([3]; DLD-1, read-out: Mean IC50 values): 170 nM
- Selectivity index (ARPE19) ([3]; IC50 ARPE-19 / IC50 DLD-1): 925.00
- Selectivity index (MCF10A) ([3]; IC50 MCF10A / IC50 DLD-1): 950.82
- Selectivity Index using the NPI non-cancer cell line ([3]; IC50 NP1 / IC50 DLD-1): 45.76
- SI (ARPE19) ([3]; mean IC50 ARPE-19 / mean IC50 DLD-1): 925.00
- SI (MCF10A) ([3]; mean IC50 MCF10A / mean IC50 DLD-1): 950.82
- SI (NPI) ([3]; mean IC50 NP1 / mean IC50 DLD-1): 45.76
- Relative potency (+ anion to no anion), Ratio + anion:no anion ([3]; ratio of IC50, DLD-1): 1
- Selectivity indices relative to ARPE-19, Ratio + anion:no anion ([3]; ratio of SI (ARPE-19), DLD-1): 1
- Selectivity indices relative to MCF10A, Ratio + anion:no anion ([3]; ratio of SI (MCF 10A), DLD-1): 1
- IC50 ([4]; A549, 96 h, MTT, individual run, read-out: IC50 values for each replicate): 161 nM and 257 nM and 503 nM and 692 nM
- IC50 ([4]; A549, 96 h, MTT, mean of at least 3 independent experiments, read-out: Mean IC50): 403 nM
- IC50 ([4]; A549, mean of replicates, read-out: Mean IC50): 403 nM
- IC50 ([4]; A549, read-out: Mean IC50 values): 403 nM
- Selectivity index (ARPE19) ([4]; IC50 ARPE-19 / IC50 A549): 390.20
- Selectivity index (MCF10A) ([4]; IC50 MCF10A / IC50 A549): 401.09
- Selectivity Index using the NPI non-cancer cell line ([4]; IC50 NP1 / IC50 A549): 19.31
- SI (ARPE19) ([4]; mean IC50 ARPE-19 / mean IC50 A549): 390.20
- SI (MCF10A) ([4]; mean IC50 MCF10A / mean IC50 A549): 401.09
- SI (NPI) ([4]; mean IC50 NP1 / mean IC50 A549): 19.31
- Relative potency (+ anion to no anion), Ratio + anion:no anion ([4]; ratio of IC50, A549): 1
- Selectivity indices relative to ARPE-19, Ratio + anion:no anion ([4]; ratio of SI (ARPE-19), A549): 1
- Selectivity indices relative to MCF10A, Ratio + anion:no anion ([4]; ratio of SI (MCF 10A), A549): 1
- ATP levels relative to vehicle control ([5]; ARPE19, 100μM, 20h): > 70%
- % ATP Activity (Average) ([5]; 3.125 µM complex): 91.98%
- % ATP Activity (Average) ([5]; 6.25 µM complex): 88.71%
- % ATP Activity (Average) ([5]; 12.5 µM complex): 84.92%
- % ATP Activity (Average) ([5]; 25 µM complex): 79.86%
- % ATP Activity (Average) ([5]; 50 µM complex): 79.43%
- % ATP Activity (Average) ([5]; 100 µM complex): 73.40%
- % ATP Activity (Average) ([6]; 3.125 µM complex): 71.75%
- % ATP Activity (Average) ([6]; 6.25 µM complex): 63.36%
- % ATP Activity (Average) ([6]; 12.5 µM complex): 54.43%
- % ATP Activity (Average) ([6]; 25 µM complex): 46.16%
- % ATP Activity (Average) ([6]; 50 µM complex): 35.67%
- % ATP Activity (Average) ([6]; 100 µM complex): 26.26%
- ATP levels relative to vehicle control ([6]; HCT116 p53+/+, concentrations of ≥25μM, 20h): < 50%
